Data from patent publication US20120157401A1, “METHODS FOR TREATING NEUROFIBROMATOSIS” (PTC Therapeutics, Inc., priority 2009, published 2012).
Read-outs that look alike come from different tables or passages of the source.

Test system: hypoxia-inducible endogenous VEGF expression
Assay: Hypoxia-inducible endogenous VEGF expression ELISA in HeLa cells, dose-response EC50 (Table 3)
Type: cell-based, human
Settings: Homo sapiens
Method in brief: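 HeLa cells kept 24-48 h under hypoxia (1% O2, 5% CO2, nitrogen balance) with or without compound, e.g. seven concentrations; secreted VEGF in conditioned medium quantified by ELISA against a standard curve. Parallel Cell Titer Glo viability under identical conditions excludes cytotoxicity.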

[1] = HeLa cells, hypoxic conditions (1% O2), VEGF ELISA of conditioned media, read-out: ELISA EC50

| Structure (SMILES) | EC50 [1] [µM] | EC50 (HeLa, read-out: ELISA EC50 μM) [µM] |
| --- | --- | --- |
| O=C(Oc1ccc(Cl)cc1)N1CCc2c([nH]c3ccc(Cl)cc23)C1c1ccc(OCC(O)CNS(=O)(=O)C2CC2)cc1 (stereo not drawn) [Compound 1567] | 0.04 to 0.2 |  |
| [H]/N=c1\sc(C)cn1CCOc1ccc([C@H]2c3[nH]c4ccc(Cl)cc4c3CCN2C(=O)Oc2ccc(Cl)cc2)cc1 [Compound 1568] | 0.008 to 0.04 |  |
| O=C(Oc1ccc(Cl)cc1)N1CCc2c([nH]c3ccc(Cl)cc23)C1c1ccc(OC2COC(c3ccccc3)OC2)cc1 (stereo not drawn) [Compound 1569] | < 0.008 |  |
| O=C(Oc1ccc(Cl)cc1)N1CCc2c([nH]c3ccc(Cl)cc23)[C@@H]1c1ccc(Oc2ncccn2)cc1 [Compound 1570] | < 0.008 |  |
| O=C(Oc1ccc(Cl)cc1)N1CCc2c([nH]c3ccc(Cl)cc23)[C@@H]1c1ccc(Oc2cnccn2)cc1 [Compound 1571] | < 0.008 |  |
| O=C(Oc1ccc(Cl)cc1)N1CCc2c([nH]c3ccc(Cl)cc23)[C@@H]1c1ccc(Oc2ccc3ccccc3n2)cc1 [Compound 1572] | < 0.008 |  |
| O=C(Oc1ccc(F)cc1)N1CCc2c([nH]c3ccc(Cl)cc23)C1c1ccc(OC2CCOCC2)cc1 (stereo not drawn) [Compound 1577] | < 0.008 |  |
| O=C(Oc1ccc(Cl)cc1)N1CCc2c([nH]c3ccc(Cl)cc23)C1c1ccc(OC2CCOCC2)cc1 (stereo not drawn) [Compound 1578] | < 0.008 |  |
| C[Si](C)(C)CCS(=O)(=O)N1CCC(Oc2ccc(C3c4[nH]c5ccc(Cl)cc5c4CCN3C(=O)Oc3ccc(F)cc3)cc2)CC1 (stereo not drawn) [Compound 1580] | < 0.008 |  |
| C[Si](C)(C)CCS(=O)(=O)N1CCC(Oc2ccc(C3c4[nH]c5ccc(Cl)cc5c4CCN3C(=O)Oc3ccc(Cl)cc3)cc2)CC1 (stereo not drawn) [Compound 1581] | < 0.008 |  |
| O=C(Oc1ccc(F)cc1)N1CCc2c([nH]c3ccc(Cl)cc23)[C@@H]1c1ccc(OC2CCOCC2)cc1 [Compound 1604] | < 0.008 |  |
| O=C(Oc1ccc(Cl)cc1)N1CCc2c([nH]c3ccc(Cl)cc23)[C@@H]1c1ccc(OC2CCOCC2)cc1 [Compound 1605] | < 0.008 |  |
| C[Si](C)(C)CCS(=O)(=O)N1CCC(Oc2ccc([C@H]3c4[nH]c5ccc(Cl)cc5c4CCN3C(=O)Oc3ccc(F)cc3)cc2)CC1 [Compound 1607] | < 0.008 |  |
| CN(C)CCN(C)CCCOc1ccc([C@H]2c3[nH]c4ccc(Cl)cc4c3CCN2C(=O)Oc2ccc(Cl)cc2)cc1 [Compound 1611] |  | < 0.008 |
| C#CCOc1ccc([C@H]2c3[nH]c4ccc(Cl)cc4c3CCN2C(=O)Oc2ccc(Cl)cc2)cc1 [Compound 1612] | < 0.008 |  |
| C#CCCCOc1ccc([C@H]2c3[nH]c4ccc(Cl)cc4c3CCN2C(=O)Oc2ccc(Cl)cc2)cc1 [Compound 1613] | < 0.008 |  |
| C#CCCOc1ccc([C@H]2c3[nH]c4ccc(Cl)cc4c3CCN2C(=O)Oc2ccc(Cl)cc2)cc1 [Compound 1614] | < 0.008 |  |
| CCC(=O)NCC(O)CCOc1ccc([C@H]2c3[nH]c4ccc(Cl)cc4c3CCN2C(=O)Oc2ccc(Cl)cc2)cc1 (stereo partly drawn) [Compound 1625] | < 0.008 |  |
| CC(C)C(=O)NCC(O)CCOc1ccc([C@H]2c3[nH]c4ccc(Cl)cc4c3CCN2C(=O)Oc2ccc(Cl)cc2)cc1 (stereo partly drawn) [Compound 1626] | < 0.008 |  |
| O=C(NCC(O)CCOc1ccc([C@H]2c3[nH]c4ccc(Cl)cc4c3CCN2C(=O)Oc2ccc(Cl)cc2)cc1)c1ccncc1 (stereo partly drawn) [Compound 1627] | < 0.008 |  |

| Structure (SMILES) | EC50 [1] [µM] | EC50 (HeLa, read-out: ELISA EC50 μM) [µM] |
| --- | --- | --- |
| O=C(NCC(O)CCOc1ccc([C@H]2c3[nH]c4ccc(Cl)cc4c3CCN2C(=O)Oc2ccc(Cl)cc2)cc1)c1cccnc1 (stereo partly drawn) [Compound 1628] | < 0.008 |  |
| O=C(NCC(O)CCOc1ccc([C@H]2c3[nH]c4ccc(Cl)cc4c3CCN2C(=O)Oc2ccc(Cl)cc2)cc1)c1ccccn1 (stereo partly drawn) [Compound 1629] | < 0.008 |  |
| COC(=O)NCC(O)CCOc1ccc([C@H]2c3[nH]c4ccc(Cl)cc4c3CCN2C(=O)Oc2ccc(Cl)cc2)cc1 (stereo partly drawn) [Compound 1635] | < 0.008 |  |
| CCOC(=O)NCC(O)CCOc1ccc([C@H]2c3[nH]c4ccc(Cl)cc4c3CCN2C(=O)Oc2ccc(Cl)cc2)cc1 (stereo partly drawn) [Compound 1636] | < 0.008 |  |
| COCCOC(=O)NCC(O)CCOc1ccc([C@H]2c3[nH]c4ccc(Cl)cc4c3CCN2C(=O)Oc2ccc(Cl)cc2)cc1 (stereo partly drawn) [Compound 1637] | < 0.008 |  |
| CCS(=O)(=O)NCC(O)CCOc1ccc([C@H]2c3[nH]c4ccc(Cl)cc4c3CCN2C(=O)Oc2ccc(Cl)cc2)cc1 (stereo partly drawn) [Compound 1638] | < 0.008 |  |
| O=C(Oc1ccc(Cl)cc1)N1CCc2c([nH]c3ccc(Cl)cc23)[C@@H]1c1ccc(OCCC(O)CNS(=O)(=O)C2CC2)cc1 (stereo partly drawn) [Compound 1639] | < 0.008 |  |
| Cc1ccc(OC(=O)N2CCc3c([nH]c4ccc(Cl)cc34)[C@@H]2c2ccc(OCCC(O)CNC(=O)C(C)C)cc2)cc1 (stereo partly drawn) [Compound 1640] | < 0.008 |  |
| Cc1ccc(OC(=O)N2CCc3c([nH]c4ccc(Cl)cc34)[C@@H]2c2ccc(OCCC(O)CNC(=O)c3ccccn3)cc2)cc1 (stereo partly drawn) [Compound 1641] | < 0.008 |  |
| COC(=O)NCC(O)CCOc1ccc([C@H]2c3[nH]c4ccc(Cl)cc4c3CCN2C(=O)Oc2ccc(C)cc2)cc1 (stereo partly drawn) [Compound 1642] | < 0.008 |  |
| CCOC(=O)NCC(O)CCOc1ccc([C@H]2c3[nH]c4ccc(Cl)cc4c3CCN2C(=O)Oc2ccc(C)cc2)cc1 (stereo partly drawn) [Compound 1643] | < 0.008 |  |
| CCCOC(=O)NCC(O)CCOc1ccc([C@H]2c3[nH]c4ccc(Cl)cc4c3CCN2C(=O)Oc2ccc(C)cc2)cc1 (stereo partly drawn) [Compound 1644] | < 0.008 |  |
| COCCOC(=O)NCC(O)CCOc1ccc([C@H]2c3[nH]c4ccc(Cl)cc4c3CCN2C(=O)Oc2ccc(C)cc2)cc1 (stereo partly drawn) [Compound 1645] | < 0.008 |  |
| CCS(=O)(=O)NCC(O)CCOc1ccc([C@H]2c3[nH]c4ccc(Cl)cc4c3CCN2C(=O)Oc2ccc(C)cc2)cc1 (stereo partly drawn) [Compound 1646] | < 0.008 |  |
| Cc1ccc(OC(=O)N2CCc3c([nH]c4ccc(Cl)cc34)[C@@H]2c2ccc(OCCC(O)CNS(=O)(=O)C3CC3)cc2)cc1 (stereo partly drawn) [Compound 1647] | < 0.008 |  |
| CS(=O)(=O)CCCOc1ccc([C@H]2c3[nH]c4ccc(Cl)cc4c3CCN2C(=O)Oc2ccc(Cl)cc2)cc1 [Compound 1648] | < 0.008 |  |
| C[Si](C)(C)CCS(=O)(=O)N1CCC(Oc2ccc([C@H]3c4[nH]c5ccc(Cl)cc5c4CCN3C(=O)Oc3ccc(Cl)cc3)cc2)CC1 [Compound 1652] | < 0.008 |  |
| Cc1cnc(C)c(Oc2ccc([C@H]3c4[nH]c5ccc(Cl)cc5c4CCN3C(=O)Oc3ccc(Cl)cc3)cc2)n1 [Compound 1658] | < 0.008 |  |
| Cc1nccnc1Oc1ccc([C@H]2c3[nH]c4ccc(Cl)cc4c3CCN2C(=O)Oc2ccc(Cl)cc2)cc1 [Compound 1659] | < 0.008 |  |
| O=C(Oc1ccc(Cl)cc1)N1CCc2c([nH]c3ccc(Cl)cc23)[C@@H]1c1ccc(Oc2ncc(CN3CCOCC3)s2)cc1 [Compound 1660] |  | < 0.008 |

| Structure (SMILES) | EC50 [1] [µM] | EC50 (HeLa, read-out: ELISA EC50 μM) [µM] |
| --- | --- | --- |
| CN1CCN(Cc2cnc(Oc3ccc([C@H]4c5[nH]c6ccc(Cl)cc6c5CCN4C(=O)Oc4ccc(Cl)cc4)cc3)s2)CC1 [Compound 1661] |  | < 0.008 |
| CCOC(=O)NC[C@H](O)COc1ccc([C@H]2c3[nH]c4ccc(Cl)cc4c3CCN2C(=O)Oc2ccc(F)cc2)cc1 [Compound 1663] | < 0.008 |  |
| CCOC(=O)NC[C@@H](O)COc1ccc([C@H]2c3[nH]c4ccc(Cl)cc4c3CCN2C(=O)Oc2ccc(F)cc2)cc1 [Compound 1664] | < 0.008 |  |
| CCCOC(=O)NCC(O)CCOc1ccc([C@H]2c3[nH]c4ccc(Cl)cc4c3CCN2C(=O)Oc2ccc(Cl)cc2)cc1 (stereo partly drawn) [Compound 1666] | < 0.008 |  |
| CS(=O)(=O)NCC(O)CCOc1ccc([C@H]2c3[nH]c4ccc(Cl)cc4c3CCN2C(=O)Oc2ccc(Cl)cc2)cc1 (stereo partly drawn) [Compound 1667] | < 0.008 |  |
| Cc1ccc(OC(=O)N2CCc3c([nH]c4ccc(Cl)cc34)[C@@H]2c2ccc(OCCC(O)CNS(C)(=O)=O)cc2)cc1 (stereo partly drawn) [Compound 1668] | 0.008 to 0.04 |  |
| N#CCOc1ccc([C@H]2c3[nH]c4ccc(Cl)cc4c3CCN2C(=O)Oc2ccc(Cl)cc2)cc1 [Compound 1669] | < 0.008 |  |
| CC1(C)C(=O)NC(=O)N1CCCOc1ccc(C2c3[nH]c4ccc(Cl)cc4c3CCN2C(=O)Oc2ccc(Cl)cc2)cc1 (stereo not drawn) [Compound 1671] |  | < 0.008 |
| O=C1CN(CCCOc2ccc(C3c4[nH]c5ccc(Cl)cc5c4CCN3C(=O)Oc3ccc(Cl)cc3)cc2)C(=O)N1 (stereo not drawn) [Compound 1672] |  | < 0.008 |
| CN1C(=O)CN(CCCOc2ccc(C3c4[nH]c5ccc(Cl)cc5c4CCN3C(=O)Oc3ccc(Cl)cc3)cc2)C1=O (stereo not drawn) [Compound 1673] | < 0.008 |  |
| O=C(Oc1ccc(Cl)cc1)N1CCc2c([nH]c3ccc(Cl)cc23)[C@@H]1c1ccc(OCc2cn(C3OC(CO)C(O)C(O)C3O)nn2)cc1 (stereo partly drawn) [Compound 1674] | 0.2 to 1 |  |
| CC(=O)OCC1OC(n2cc(COc3ccc([C@H]4c5[nH]c6ccc(Cl)cc6c5CCN4C(=O)Oc4ccc(Cl)cc4)cc3)nn2)C(OC(C)=O)C(OC(C)=O)C1OC(C)=O (stereo partly drawn) [Compound 1675] | 0.04 to 0.2 |  |
| O=C(Oc1ccc(Cl)cc1)N1CCc2c([nH]c3ccc(Cl)cc23)[C@@H]1c1ccc(OCCc2cn(C3OC(CO)C(O)C(O)C3O)nn2)cc1 (stereo partly drawn) [Compound 1676] | > 1 |  |
| CC(=O)OCC1OC(n2cc(CCOc3ccc([C@H]4c5[nH]c6ccc(Cl)cc6c5CCN4C(=O)Oc4ccc(Cl)cc4)cc3)nn2)C(OC(C)=O)C(OC(C)=O)C1OC(C)=O (stereo partly drawn) [Compound 1677] | 0.04 to 0.2 |  |
| O=C(Oc1ccc(Cl)cc1)N1CCc2c([nH]c3ccc(Cl)cc23)[C@@H]1c1ccc(OC2CCN(c3ncccn3)CC2)cc1 [Compound 1681] | < 0.008 |  |
| O=C(Oc1ccc(Cl)cc1)N1CCc2c([nH]c3ccc(Cl)cc23)[C@@H]1c1ccc(OC2CCN(CCN3CCOCC3)CC2)cc1 [Compound 1682] |  | < 0.008 |
| O=C(OCCN1CCOCC1)N1CCC(Oc2ccc([C@H]3c4[nH]c5ccc(Cl)cc5c4CCN3C(=O)Oc3ccc(Cl)cc3)cc2)CC1 [Compound 1693] |  | < 0.008 |
| CN1CCC(Oc2ccc([C@H]3c4[nH]c5ccc(Cl)cc5c4CCN3C(=O)Oc3ccc(Cl)cc3)cc2)CC1 [Compound 1694] |  | < 0.008 |
| O=C(Oc1ccc(Cl)cc1)N1CCc2c([nH]c3ccc(Cl)cc23)[C@@H]1c1ccc(OC2OC(CO)C(O)C(O)C2O)cc1 (stereo partly drawn) [Compound 1695] | 0.2 to 1 |  |
| O=C(Oc1ccc(Cl)cc1)N1CCc2c([nH]c3ccc(Cl)cc23)[C@@H]1c1ccc(Oc2ccc(Cl)nn2)cc1 [Compound 1698] | < 0.008 |  |
